The values below are quoted from earlier work in US7560446B2, “Use of angiotensin II receptor antagonists for treating acute myocardial infarction” (Novartis AG, priority 1999, dated 2009).

The conditions of the data set: preclinical; administration of the compound in acute MI; no details given.

SMILES strings stand for the structures.

As to `CCCCC(=O)N(Cc1ccc(-c2ccccc2-c2nnn[nH]2)cc1)[C@H](C(=O)O)C(C)C` [valsartan, (S)—N-(1-carboxy-2-methylprop-1-yl)-N-pentanoyl-N—[2′(1H-tetrazol-5-yl)biphenyl-4-ylmethyl]amine], the “size of the MI” value is “reduce the size of the MI”.
